Assay results from US20260325533A1, “CDK INHIBITOR COMPOUNDS” (ALEKSIA THERAPEUTICS, INC., priority 2023, published 2026).
Like-named read-outs stand apart in the source and are kept apart here. Values belong to the compound of their own block, whether it stands above or below them.

Key:
Format in all cases: biochemical
CDK2/CCNE1 = CDK2/CCNE1 (Homo sapiens, UniProt P24941); experiment: CDK2 homogeneous time-resolved fluorescence (HTRF) kinase assay; conditions: CDK2/CCNE
Summary of the method: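 3 nM CDK2/CCNE1 was preincubated with compound for 20 min at 23 °C in HEPES buffer (pH not stated), then reacted 60 min with 1 mM ATP and 50 nM ULight-4E-BP1 (Thr37/46) peptide. After EDTA stop, Eu-anti-phospho-4E-BP1 antibody (2 nM) was added for 60 min and TR-FRET read at 665 nm.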

CDK6/CCND1 = CDK6/CCND1 (Homo sapiens, UniProt Q00534); experiment: CDK6 homogeneous time-resolved fluorescence (HTRF) kinase assay; conditions: CDK6/CCND
Summary of the method: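 Enzyme pre-incubated 20 min at 23 °C with compound, then reacted 60 min at 23 °C with 1 mM ATP and 50 nM ULight-4E-BP1 (Thr37/46) peptide; 1 nM enzyme, 1% DMSO. EDTA-stopped, Eu-anti-phospho antibody TR-FRET read (665 nm or 665/615 ratio); 11-point half-log titration from 10 μM gave IC50.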

CDK1/CCNB1 = CDK1/CCNB1 (Homo sapiens, UniProt P06493); experiment: CDK1 homogeneous time-resolved fluorescence (HTRF) kinase assay; conditions: CDK1/CCNB
Summary of the method: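 Compounds, titrated 11 points in half-log steps typically from 10 μM, were incubated with enzyme for 20 min before ATP (1 mM) and ULight-labelled eIF4E-binding protein 1 peptide (50 nM) started a 60-min reaction at 23 °C. Phosphopeptide was detected by europium-antibody TR-FRET and IC50 values were derived.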

CDK4/CCND3 = CDK4/CCND3 (Homo sapiens, UniProt P11802); experiment: CDK4 homogeneous time-resolved fluorescence (HTRF) kinase assay; conditions: CDK4/CCND
Summary of the method: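 CDK4/CCND3 at 1.5 nM was preincubated with compound for 20 min at 23 °C, then reacted for 60 min with 1 mM ATP and 50 nM ULight-4E-BP1 (Thr37/46) peptide. The reaction was stopped with EDTA, and phosphorylation was read by HTRF with a Eu-anti-phospho antibody. IC50 values came from 11-point half-log titrations, typically from 10 μM.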

[1] = x = IC50 25-250 nM, read-out: CDK2/CCNE IC50 (25-250 nM)
[2] = x = IC50 >250 nM, read-out: CDK6/CCND IC50 (>250 nM column)
[3] = x = IC50 >250 nM, read-out: CDK1/CCNB IC50 (>250 nM column)
[4] = x = IC50 >250 nM, read-out: CDK4/CCND IC50 (>250 nM column)
[5] = x = IC50 <25 nM, read-out: CDK2/CCNE IC50 (<25 nM)
[6] = 25-250 nM, read-out: CDK2/CCNE IC50, 25-250 nM
[7] = >250 nM, 1 mM ATP, read-out: CDK6/CCND IC50, >250 nM
[8] = >250 nM, read-out: CDK1/CCNB IC50 >250 nM
[9] = >250 nM, read-out: CDK4/CCND IC50, >250 nM
[10] = <25 nM, read-out: CDK2/CCNE IC50 <25 nM
[11] = <25 nM, read-out: CDK6/CCND IC50 <25 nM
[12] = >250 nM marked x, read-out: CDK1/CCNB IC50 >250 nM
[13] = 25-250 nM marked x, read-out: CDK4/CCND IC50 25-250 nM
[14] = <25 nM, read-out: CDK2/CCNE IC50, <25 nM
[15] = 25-250 nM marked x, read-out: CDK2/CCNE IC50 25-250 nM
[16] = 25-250 nM marked x, read-out: CDK6/CCND IC50 25-250 nM
[17] = >250 nM marked x, read-out: CDK4/CCND IC50 >250 nM
[18] = >250 nM marked x, read-out: CDK6/CCND IC50 >250 nM

Chain of CDK6/CCND1 (Q00534 whole entry): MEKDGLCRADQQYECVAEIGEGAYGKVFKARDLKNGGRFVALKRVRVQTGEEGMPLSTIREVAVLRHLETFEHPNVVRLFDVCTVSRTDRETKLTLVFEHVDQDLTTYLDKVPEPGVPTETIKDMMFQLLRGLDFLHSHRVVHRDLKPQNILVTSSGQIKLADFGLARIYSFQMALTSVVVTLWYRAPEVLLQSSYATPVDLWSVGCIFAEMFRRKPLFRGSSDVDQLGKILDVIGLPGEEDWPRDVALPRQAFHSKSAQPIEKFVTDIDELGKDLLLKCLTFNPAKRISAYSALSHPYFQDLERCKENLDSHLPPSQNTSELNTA
Chain of CDK6/CCND1 (P24385 whole entry partner): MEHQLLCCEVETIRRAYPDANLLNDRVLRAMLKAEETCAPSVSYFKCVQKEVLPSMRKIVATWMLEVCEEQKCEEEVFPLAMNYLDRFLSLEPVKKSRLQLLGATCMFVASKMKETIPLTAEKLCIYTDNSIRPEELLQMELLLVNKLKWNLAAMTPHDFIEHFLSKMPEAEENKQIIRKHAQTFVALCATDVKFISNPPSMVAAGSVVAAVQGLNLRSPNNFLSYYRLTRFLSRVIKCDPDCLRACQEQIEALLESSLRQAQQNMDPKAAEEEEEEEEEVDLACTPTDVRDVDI
Chain of CDK4/CCND3 (P11802 whole entry): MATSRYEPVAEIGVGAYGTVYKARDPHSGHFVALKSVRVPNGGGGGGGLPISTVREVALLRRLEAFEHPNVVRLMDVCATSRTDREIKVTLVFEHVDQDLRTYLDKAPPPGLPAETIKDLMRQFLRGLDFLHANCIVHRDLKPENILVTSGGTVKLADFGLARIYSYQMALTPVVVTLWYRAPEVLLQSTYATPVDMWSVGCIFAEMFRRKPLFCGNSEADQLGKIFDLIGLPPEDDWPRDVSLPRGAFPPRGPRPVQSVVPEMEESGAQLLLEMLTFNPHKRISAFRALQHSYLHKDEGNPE
Chain of CDK4/CCND3 (P30281 whole entry partner): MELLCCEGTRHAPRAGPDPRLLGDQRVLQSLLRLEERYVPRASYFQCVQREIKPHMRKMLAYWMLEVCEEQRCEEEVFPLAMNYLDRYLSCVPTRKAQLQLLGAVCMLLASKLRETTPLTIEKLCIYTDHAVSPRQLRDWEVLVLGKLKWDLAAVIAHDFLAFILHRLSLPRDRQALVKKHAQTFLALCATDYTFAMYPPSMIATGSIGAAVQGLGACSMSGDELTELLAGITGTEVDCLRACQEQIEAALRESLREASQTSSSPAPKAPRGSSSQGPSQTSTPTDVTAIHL
Chain of CDK1/CCNB1 (P06493 whole entry): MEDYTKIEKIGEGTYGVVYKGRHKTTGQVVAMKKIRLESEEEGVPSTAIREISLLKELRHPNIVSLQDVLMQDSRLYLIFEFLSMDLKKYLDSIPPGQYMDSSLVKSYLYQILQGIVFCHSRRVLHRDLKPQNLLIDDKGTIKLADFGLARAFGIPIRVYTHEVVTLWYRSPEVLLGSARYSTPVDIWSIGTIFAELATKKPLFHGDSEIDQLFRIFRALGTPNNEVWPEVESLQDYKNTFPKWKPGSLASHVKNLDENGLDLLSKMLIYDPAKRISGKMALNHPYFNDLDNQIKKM
Chain of CDK1/CCNB1 (P14635 whole entry partner): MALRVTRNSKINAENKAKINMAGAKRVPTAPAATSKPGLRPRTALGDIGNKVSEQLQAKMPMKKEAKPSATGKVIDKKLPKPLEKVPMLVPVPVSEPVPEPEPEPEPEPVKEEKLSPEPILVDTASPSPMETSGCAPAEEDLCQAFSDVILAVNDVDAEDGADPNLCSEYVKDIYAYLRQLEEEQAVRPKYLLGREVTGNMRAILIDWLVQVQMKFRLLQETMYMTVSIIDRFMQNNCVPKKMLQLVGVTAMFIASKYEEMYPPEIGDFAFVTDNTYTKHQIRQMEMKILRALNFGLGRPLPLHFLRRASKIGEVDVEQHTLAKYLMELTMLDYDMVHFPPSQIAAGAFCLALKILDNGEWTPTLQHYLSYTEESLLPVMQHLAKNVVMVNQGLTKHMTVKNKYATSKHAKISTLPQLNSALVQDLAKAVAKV

IC50 (CDK2/CCNE1; [1]): 25 to 250 nM | IC50 (CDK6/CCND1; [2]): > 250 nM | IC50 (CDK1/CCNB1; [3]): > 250 nM | IC50 (CDK4/CCND3; [4]): > 250 nM
SMILES: CC(=O)NS(=O)(=O)c1ccc(Nc2cc3c(-c4ccc5c(cnn5CC(O)(C(F)(F)F)C(F)(F)F)c4C)nccc3cn2)cc1 [Example 678, N-((4-((5-(4-methyl-1-(3,3,3-trifluoro-2-hydroxy-2-(trifluoromethyl)propyl)-1H-indazol-5-yl)-2,6-naphthyridin-3-yl)amino)phenyl)sulfonyl)acetamide]

IC50 (CDK2/CCNE1; [5]): < 25 nM | IC50 (CDK6/CCND1; [2]): > 250 nM | IC50 (CDK1/CCNB1; [3]): > 250 nM | IC50 (CDK4/CCND3; [4]): > 250 nM
SMILES: CCS(=O)(=O)c1ccc(Nc2cc3c(C#Cc4cccnc4N)nccc3cn2)cc1 [Ex 401, 5-((2-aminopyridin-3-yl)ethynyl)-N-(4-(ethylsulfonyl)phenyl)-2,6-naphthyridin-3-amine]

IC50 (CDK2/CCNE1; [14]): < 25 nM | IC50 (CDK6/CCND1; [7]): > 250 nM | IC50 (CDK1/CCNB1; [8]): > 250 nM | IC50 (CDK4/CCND3; [9]): > 250 nM
SMILES: CC#Cc1nccc2cnc(Nc3ccc(S(=O)(=O)Nc4nccn4C)cc3)cc12 [Ex 854, N-(1-methyl-1H-imidazol-2-yl)-4-((5-(prop-1-yn-1-yl)-2,6-naphthyridin-3-yl)amino)benzenesulfonamide]

IC50 (CDK2/CCNE1; [6]): 25 to 250 nM | IC50 (CDK6/CCND1; [7]): > 250 nM | IC50 (CDK1/CCNB1; [8]): > 250 nM | IC50 (CDK4/CCND3; [9]): > 250 nM
SMILES: Cc1c(-c2nccc3cnc(Nc4ccnc(OCc5ccccc5)c4)cc23)ccc2c1cnn2CC(C)(C)O [Ex 939, 1-(5-(7-((2-(benzyloxy)pyridin-4-yl)amino)-2,6-naphthyridin-1-yl)-4-methyl-1H-indazol-1-yl)-2-methylpropan-2-ol]

IC50 (CDK2/CCNE1; [5]): < 25 nM | IC50 (CDK6/CCND1; [2]): > 250 nM | IC50 (CDK1/CCNB1; [3]): > 250 nM | IC50 (CDK4/CCND3; [4]): > 250 nM
SMILES: CS(=O)(=O)c1ccc(Nc2cc3c(C#Cc4ccncc4N)nccc3cn2)cc1 [Ex 572, 5-((3-aminopyridin-4-yl)ethynyl)-N-(4-(methylsulfonyl)phenyl)-2,6-naphthyridin-3-amine]

IC50 (CDK2/CCNE1; [1]): 25 to 250 nM | IC50 (CDK6/CCND1; [2]): > 250 nM | IC50 (CDK1/CCNB1; [3]): > 250 nM | IC50 (CDK4/CCND3; [4]): > 250 nM
SMILES: CS(=O)(=O)c1ccc(Nc2cc3c(C#Cc4ccnc5[nH]ncc45)nccc3cn2)cc1 [Ex 548, 5-((1H-pyrazolo[3,4-b]pyridin-4-yl)ethynyl)-N-(4-(methylsulfonyl)phenyl)-2,6-naphthyridin-3-amine]

IC50 (CDK2/CCNE1; [15]): 25 to 250 nM | IC50 (CDK6/CCND1; [18]): > 250 nM | IC50 (CDK1/CCNB1; [12]): > 250 nM | IC50 (CDK4/CCND3; [17]): > 250 nM
SMILES: CS(=O)(=O)c1ccc(Nc2cc3c(C4CCN(Cc5ccc(Cl)cc5)C4)nccc3cn2)cc1 (racemic) [Ex 233, 5-(1-(4-chlorobenzyl)pyrrolidin-3-yl)-N-(4-(methylsulfonyl)phenyl)-2,6-naphthyridin-3-amine]

IC50 (CDK2/CCNE1; [10]): < 25 nM | IC50 (CDK6/CCND1; [11]): < 25 nM | IC50 (CDK1/CCNB1; 25-250 nM marked x, read-out: CDK1/CCNB IC50 25-250 nM): 25 to 250 nM | IC50 (CDK4/CCND3; <25 nM, read-out: CDK4/CCND IC50 <25 nM): < 25 nM
SMILES: CS(=O)(=O)N1CCC(Nc2cc3c(-c4ccc5cc[nH]c5c4)nccc3cn2)CC1 [Ex 89, 5-(1H-indol-6-yl)-N-(1-(methylsulfonyl)piperidin-4-yl)-2,6-naphthyridin-3-amine]

IC50 (CDK2/CCNE1; [1]): 25 to 250 nM | IC50 (CDK6/CCND1; [2]): > 250 nM | IC50 (CDK1/CCNB1; [3]): > 250 nM | IC50 (CDK4/CCND3; [4]): > 250 nM
SMILES: CS(=O)(=O)c1ccc(Nc2cc3c(C#Cc4cncc(Cl)c4N)nccc3cn2)cc1 [Ex 575, 5-((4-amino-5-chloropyridin-3-yl)ethynyl)-N-(4-(methylsulfonyl)phenyl)-2,6-naphthyridin-3-amine]

IC50 (CDK2/CCNE1; [10]): < 25 nM | IC50 (CDK6/CCND1; [16]): 25 to 250 nM | IC50 (CDK1/CCNB1; [12]): > 250 nM | IC50 (CDK4/CCND3; [13]): 25 to 250 nM
SMILES: Cc1c(-c2nccc3cnc(Nc4ccc(S(C)(=O)=O)cc4)cc23)ccc2c1cnn2CC1CCNC1 (racemic) [Ex 193, 5-(4-methyl-1-(pyrrolidin-3-ylmethyl)-1H-indazol-5-yl)-N-(4-(methylsulfonyl)phenyl)-2,6-naphthyridin-3-amine]

Second part, the compound before the results:

SMILES: Cc1c(-c2nccc3cnc(Nc4ccc(NS(=O)(=O)c5cnn(-c6ccccn6)c5)cc4)cc23)ccc2c1cnn2CC(C)(C)O [Ex 824, N-(4-((5-(1-(2-hydroxy-2-methylpropyl)-4-methyl-1H-indazol-5-yl)-2,6-naphthyridin-3-yl)amino)phenyl)-1-(pyridin-2-yl)-1H-pyrazole-4-sulfonamide]
IC50 (CDK2/CCNE1; [6]): 25 to 250 nM | IC50 (CDK6/CCND1; [7]): > 250 nM | IC50 (CDK1/CCNB1; [8]): > 250 nM | IC50 (CDK4/CCND3; [9]): > 250 nM

SMILES: C=CS(=O)(=O)N1CCC(Nc2cc3c(-c4cccc(C#N)c4)nccc3cn2)CC1 [Example 24, 3-(7-((1-(vinylsulfonyl)piperidin-4-yl)amino)-2,6-naphthyridin-1-yl)benzonitrile]
IC50 (CDK2/CCNE1; [10]): < 25 nM | IC50 (CDK6/CCND1; [11]): < 25 nM | IC50 (CDK1/CCNB1; [12]): > 250 nM | IC50 (CDK4/CCND3; [13]): 25 to 250 nM

SMILES: CS(=O)(=O)c1ccc(Nc2cc3c(C4=CC(O)CCC4)nccc3cn2)cc1 (racemic) [Ex 240, 3-(7-((4-(methylsulfonyl)phenyl)amino)-2,6-naphthyridin-1-yl)cyclohex-2-en-1-ol]
IC50 (CDK2/CCNE1; [15]): 25 to 250 nM | IC50 (CDK6/CCND1; [16]): 25 to 250 nM | IC50 (CDK1/CCNB1; [12]): > 250 nM | IC50 (CDK4/CCND3; [17]): > 250 nM

SMILES: CS(=O)(=O)c1ccc(Nc2cc3c(ccnc3[C@H]3CC[C@H](C(=O)Nc4ccccc4)CC3)cn2)cc1 [Ex 202, (1r,4r)-4-(7-((4-(methylsulfonyl)phenyl)amino)-2,6-naphthyridin-1-yl)-N-phenylcyclohexane-1-carboxamide]
IC50 (CDK2/CCNE1; [15]): 25 to 250 nM | IC50 (CDK6/CCND1; [18]): > 250 nM | IC50 (CDK1/CCNB1; [12]): > 250 nM | IC50 (CDK4/CCND3; [17]): > 250 nM

SMILES: CC(C)S(=N)(=O)c1ccc(Nc2cc3c(C#Cc4cc5c(cc4N)C(C)(C)C(=O)N5)nccc3cn2)cc1 (single isomer, unassigned) [Example 270, 5-amino-3,3-dimethyl-6-((7-((4-(propan-2-ylsulfonimidoyl)phenyl)amino)-2,6-naphthyridin-1-yl)ethynyl)indolin-2-one]
IC50 (CDK2/CCNE1; [10]): < 25 nM | IC50 (CDK6/CCND1; [18]): > 250 nM | IC50 (CDK1/CCNB1; [12]): > 250 nM | IC50 (CDK4/CCND3; [13]): 25 to 250 nM

SMILES: CS(=O)(=O)c1ccc(Nc2cc3c(C#CC4(O)CCCNC4)nccc3cn2)cc1 (stereo not shown) [Example 699, 3-((7-((4-(methylsulfonyl)phenyl)amino)-2,6-naphthyridin-1-yl)ethynyl)piperidin-3-ol]
IC50 (CDK2/CCNE1; [14]): < 25 nM | IC50 (CDK6/CCND1; [7]): > 250 nM | IC50 (CDK1/CCNB1; [8]): > 250 nM | IC50 (CDK4/CCND3; 25-250 nM, read-out: CDK4/CCND IC50, 25-250 nM): 25 to 250 nM

SMILES: CN1CCC(NS(=O)(=O)c2ccc(Nc3cc4c(C#Cc5cccnc5N)nccc4cn3)cc2)CC1 [Ex 432, 4-((5-((2-aminopyridin-3-yl)ethynyl)-2,6-naphthyridin-3-yl)amino)-N-(1-methylpiperidin-4-yl)benzenesulfonamide]
IC50 (CDK2/CCNE1; [5]): < 25 nM | IC50 (CDK6/CCND1; x = IC50 25-250 nM, read-out: CDK6/CCND IC50 (25-250 nM)): 25 to 250 nM | IC50 (CDK1/CCNB1; x = IC50 25-250 nM, read-out: CDK1/CCNB IC50 (25-250 nM)): 25 to 250 nM | IC50 (CDK4/CCND3; x = IC50 25-250 nM, read-out: CDK4/CCND IC50 (25-250 nM)): 25 to 250 nM

SMILES: C=CS(=O)(=O)c1ccc(Nc2cc3c(-c4ccc5[nH]ccc5c4)nccc3cn2)cc1 [Ex 185, 5-(1H-indol-5-yl)-N-(4-(vinylsulfonyl)phenyl)-2,6-naphthyridin-3-amine]
IC50 (CDK2/CCNE1; [15]): 25 to 250 nM | IC50 (CDK6/CCND1; [18]): > 250 nM | IC50 (CDK1/CCNB1; [12]): > 250 nM | IC50 (CDK4/CCND3; [17]): > 250 nM

SMILES: CS(=O)(=O)c1ccc(Nc2cc3c(C#Cc4cnc5ccc(Cl)nn45)nccc3cn2)cc1 [Ex 578, 5-((6-chloroimidazo[1,2-b]pyridazin-3-yl)ethynyl)-N-(4-(methylsulfonyl)phenyl)-2,6-naphthyridin-3-amine]
IC50 (CDK2/CCNE1; [1]): 25 to 250 nM | IC50 (CDK6/CCND1; [2]): > 250 nM | IC50 (CDK1/CCNB1; [3]): > 250 nM | IC50 (CDK4/CCND3; [4]): > 250 nM
